Results from PubChem BioAssay AID1963960 (Molecular Pharmacology Branch, DTP, NCI, 2024).

Tested on: MDA-MB-468 spheroids with HUVEC/MSC, viability
Experiment: Anticancer human tumor MDA-MB-468 cell line growth inhibition [PI3K];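 note: spheroids exposed to agents for seven days before readout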;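 for viability, T/C: 100% = DMSO vehicle control viability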
Settings: for IC50: curve of first compound; for viability, T/C: stronger effect = lower value
From the text: Combinatorial screen of targeted agents with the PI3K inhibitors inavolisib, alpelisib, duvelisib, and copanlisib in multi-cell type tumor spheroids
A high-throughput screen of multi-cell type tumor spheroids was designed to identify active combinations of targeted small molecules and PI3K pathway inhibitors. Complex spheroids include a stromal component modeled by human endothelial cells (HUVEC) and fibroblasts modeled by human mesenchymal stem cells (MSCs). The concentration ranges selected for each drug and investigational agent were based upon clinically achievable concentrations if the clinical Cmax of the agent was known.
Compounds. The drugs and investigational agents: inavolisib (NSC800729), alpelisib (NSC765974), duvelisib (NSC772469), copanlisib (NSC816437), ipatasertib (NSC767898), afuresertib (NSC778305), talazoparib (NSC767125), sapanisertib (NSC764658), selumetinib (NSC741078), tovorafenib (DAY101, NSC766906), vemurafenib (NSC761431), ravoxertinib (NSC781343), sotorasib (NSC818433), MRTX1133 (NSC 836407), abemaciclib (NSC 768073), palbociclib (NSC758247), venetoclax (NSC 766270), SY5609 (NSC837396), enzalutamide (NSC755605), and darolutamide (NSC825331), were obtained from the National Cancer Institute (NCI) Developmental Therapeutics Program Chemical Repository. The FDA-approved anticancer drug set is available from the NCI Developmental Therapeutics Program. […] The stock solutions were prepared in dimethyl sulfoxide (DMSO, Sigma-Aldrich, St. Louis, MO, cat. D2650) at 800-fold the tested concentration and stored at -70 degrees C prior to their use. All drugs and investigational agents were tested over a range starting from a high concentration at or near the clinical Cmax and decreasing in half-log increments. If the clinical Cmax for an agent had not been determined, the highest concentration tested was 10 microM.
Cell Culture. All cells were maintained in an incubator at 37 degrees C and 5% CO2 with 95% humidity. The PDC lines were cultured according to standard operating procedures established by the NCI PDMR (https://pdmr.cancer.gov/sops/default.htm). All PDCs were thawed and cultured in Matrigel-coated flasks prepared with a working solution of 1X Ham's F-12 nutrient mix, without supplementation (Invitrogen, Waltham, MA, cat. 11765054), 100 U/mL penicillin-streptomycin (Invitrogen, cat. 15140122), and 2.5% Matrigel (Corning Inc., Corning, NY, cat. 354248) for the first three passages. The 354836-022-R-J1-PDC, 475296-252-R-J1-PDC, and 997726-040-R-J2-PDC lines were cultured in 6A media, which includes advanced DMEM/F-12 (Thermo Fisher Scientific, cat. 12634028), 10 mM HEPES (Thermo Fisher Scientific, cat. 15630080), 1X GlutaMAX supplement (Thermo Fisher Scientific, cat. 35050061), 0.1 mg/mL primocin (InvivoGen, San Diego, CA, cat. ant-pm-2), 10% defined fetal bovine serum, heat inactivated (HyClone Laboratories Inc., Logan, UT, cat. SH30070.03HI), 50% L-WRN conditioned media (ATCC, cat. CRL-3276), 1.25 mM N-Acetyl-L-cysteine (Sigma-Aldrich, cat. A9165), 10 mM nicotinamide (Sigma-Aldrich, cat. N0636), 1X B-27 supplement (Thermo Fisher Scientific, cat. 17504044), 1X N-2 supplement (Thermo Fisher Scientific, cat. 17502048), and 10 microM Y-27632 dihydrochloride (Tocris Bioscience, Bristol, United Kingdom, cat. 1254). The 624824-186-R-J2-PDC line was cultured in 6C/Colon 1B media, which includes all 6A media components plus 50 ng/mL human EGF recombinant protein (Thermo Fisher Scientific, cat. PHG0311). […]

[1] = second compound 0.00316 µM, first compound 0.0316 µM
[2] = second compound 0.00316 µM, first compound 0.1 µM
[3] = second compound 0.01 µM, first compound 0.0316 µM
[4] = second compound 0.01 µM, first compound 0.1 µM
[5] = second compound 0.0316 µM, first compound 0.0316 µM
[6] = second compound 0.0316 µM, first compound 0.1 µM
[7] = second compound 0.1 µM, first compound 0.0316 µM
[8] = second compound 0.1 µM, first compound 0.1 µM
[9] = second compound 0.316 µM, first compound 0.0316 µM
[10] = second compound 0.316 µM, first compound 0.1 µM
[11] = second compound 1 µM, first compound 0.0316 µM
[12] = second compound 1 µM, first compound 0.1 µM
[13] = second compound 0.00316 µM, first compound 0.316 µM
[14] = second compound 0.00316 µM, first compound 1 µM
[15] = second compound 0.00316 µM, first compound 3.16 µM
[16] = second compound 0.00316 µM, first compound 10 µM
[17] = second compound 0.01 µM, first compound 0.316 µM
[18] = second compound 0.01 µM, first compound 1 µM
[19] = second compound 0.01 µM, first compound 3.16 µM
[20] = second compound 0.01 µM, first compound 10 µM
[21] = second compound 0.0316 µM, first compound 0.316 µM
[22] = second compound 0.0316 µM, first compound 1 µM
[23] = second compound 0.0316 µM, first compound 3.16 µM
[24] = second compound 0.0316 µM, first compound 10 µM
[25] = second compound 0.1 µM, first compound 0.316 µM
[26] = second compound 0.1 µM, first compound 1 µM
[27] = second compound 0.1 µM, first compound 3.16 µM
[28] = second compound 0.1 µM, first compound 10 µM
[29] = second compound 0.316 µM, first compound 0.316 µM
[30] = second compound 0.316 µM, first compound 1 µM
[31] = second compound 0.316 µM, first compound 3.16 µM
[32] = second compound 0.316 µM, first compound 10 µM
[33] = second compound 1 µM, first compound 0.316 µM
[34] = second compound 1 µM, first compound 1 µM
[35] = second compound 1 µM, first compound 3.16 µM
[36] = second compound 1 µM, first compound 10 µM

SMILES: CC(=O)c1c(C)c2cnc(Nc3ccc(N4CCNCC4)cn3)nc2n(C2CCCC2)c1=O + CC(Nc1ccc2c(c1)OCCn1cc(N3C(=O)OCC3C(F)F)nc1-2)C(N)=O
- IC50 (second compound 0.00316 µM): > 0.1 µM
- IC50 (second compound 0.01 µM): > 0.1 µM
- IC50 (second compound 0.0316 µM): > 0.1 µM
- IC50 (second compound 0.1 µM): > 0.1 µM
- IC50 (second compound 0.316 µM): > 0.1 µM
- IC50 (second compound 1 µM): > 0.1 µM
- viability, T/C (second compound 0.00316 µM, first compound 0.000316 µM): 96.1%
- viability, T/C (second compound 0.00316 µM, first compound 0.001 µM): 95.3%
- viability, T/C (second compound 0.00316 µM, first compound 0.00316 µM): 96.8%
- viability, T/C (second compound 0.00316 µM, first compound 0.01 µM): 102%
- viability, T/C [1]: 97.4%
- viability, T/C [2]: 89.9%
- viability, T/C (second compound 0.01 µM, first compound 0.000316 µM): 105%
- viability, T/C (second compound 0.01 µM, first compound 0.001 µM): 91%
- viability, T/C (second compound 0.01 µM, first compound 0.00316 µM): 93.6%
- viability, T/C (second compound 0.01 µM, first compound 0.01 µM): 110%
- viability, T/C [3]: 105%
- viability, T/C [4]: 97.1%
- viability, T/C (second compound 0.0316 µM, first compound 0.000316 µM): 103%
- viability, T/C (second compound 0.0316 µM, first compound 0.001 µM): 92.7%
- viability, T/C (second compound 0.0316 µM, first compound 0.00316 µM): 89%
- viability, T/C (second compound 0.0316 µM, first compound 0.01 µM): 89%
- viability, T/C [5]: 97%
- viability, T/C [6]: 79.3%
- viability, T/C (second compound 0.1 µM, first compound 0.000316 µM): 86.5%
- viability, T/C (second compound 0.1 µM, first compound 0.001 µM): 84.8%
- viability, T/C (second compound 0.1 µM, first compound 0.00316 µM): 101%
- viability, T/C (second compound 0.1 µM, first compound 0.01 µM): 88.4%
- viability, T/C [7]: 96%
- viability, T/C [8]: 89.2%
- viability, T/C (second compound 0.316 µM, first compound 0.000316 µM): 89.5%
- viability, T/C (second compound 0.316 µM, first compound 0.001 µM): 72.1%
- viability, T/C (second compound 0.316 µM, first compound 0.00316 µM): 79.1%
- viability, T/C (second compound 0.316 µM, first compound 0.01 µM): 87.5%
- viability, T/C [9]: 83.8%
- viability, T/C [10]: 84.1%
- viability, T/C (second compound 1 µM, first compound 0.000316 µM): 84.1%
- viability, T/C (second compound 1 µM, first compound 0.001 µM): 81.6%
- viability, T/C (second compound 1 µM, first compound 0.00316 µM): 73%
- viability, T/C (second compound 1 µM, first compound 0.01 µM): 90.6%
- viability, T/C [11]: 66.7%
- viability, T/C [12]: 82%

SMILES: CCCS(=O)(=O)Nc1ccc(F)c(C(=O)c2c[nH]c3ncc(-c4ccc(Cl)cc4)cc23)c1F + CC(Nc1ccc2c(c1)OCCn1cc(N3C(=O)OCC3C(F)F)nc1-2)C(N)=O
- IC50 (second compound 0.00316 µM): 5.33 µM
- IC50 (second compound 0.01 µM): 5.16 µM
- IC50 (second compound 0.0316 µM): 5.07 µM
- IC50 (second compound 0.1 µM): 4.53 µM
- IC50 (second compound 0.316 µM): 3.62 µM
- IC50 (second compound 1 µM): 3.72 µM
- viability, T/C [1]: 89.1%
- viability, T/C [2]: 114%
- viability, T/C [13]: 100%
- viability, T/C [14]: 94.4%
- viability, T/C [15]: 78.9%
- viability, T/C [16]: 15.6%
- viability, T/C [3]: 101%
- viability, T/C [4]: 90%
- viability, T/C [17]: 90.6%
- viability, T/C [18]: 104%
- viability, T/C [19]: 74.8%
- viability, T/C [20]: 16.4%
- viability, T/C [5]: 106%
- viability, T/C [6]: 98.7%
- viability, T/C [21]: 86.8%
- viability, T/C [22]: 103%
- viability, T/C [23]: 74.8%
- viability, T/C [24]: 14.2%
- viability, T/C [7]: 95.4%
- viability, T/C [8]: 90.6%
- viability, T/C [25]: 85.6%
- viability, T/C [26]: 94.5%
- viability, T/C [27]: 66.2%
- viability, T/C [28]: 14.5%
- viability, T/C [9]: 95.6%
- viability, T/C [10]: 89.1%
- viability, T/C [29]: 79.2%
- viability, T/C [30]: 94.1%
- viability, T/C [31]: 55%
- viability, T/C [32]: 12.1%
- viability, T/C [11]: 85.3%
- viability, T/C [12]: 88.3%
- viability, T/C [33]: 78.7%
- viability, T/C [34]: 67.2%
- viability, T/C [35]: 61.4%
- viability, T/C [36]: 11%

SMILES: CNC(=O)c1ccc(N2C(=S)N(c3ccc(C#N)c(C(F)(F)F)c3)C(=O)C2(C)C)cc1F + CC(Nc1ccc2c(c1)OCCn1cc(N3C(=O)OCC3C(F)F)nc1-2)C(N)=O
- IC50 (second compound 0.00316 µM): > 10 µM
- IC50 (second compound 0.01 µM): > 10 µM
- IC50 (second compound 0.0316 µM): > 10 µM
- IC50 (second compound 0.1 µM): > 10 µM
- IC50 (second compound 0.316 µM): > 10 µM
- IC50 (second compound 1 µM): > 10 µM
- viability, T/C [1]: 95.2%
- viability, T/C [2]: 94.6%
- viability, T/C [13]: 94.9%
- viability, T/C [14]: 98.9%
- viability, T/C [15]: 94.3%
- viability, T/C [16]: 76.7%
- viability, T/C [3]: 100%
- viability, T/C [4]: 107%
- viability, T/C [17]: 105%
- viability, T/C [18]: 107%
- viability, T/C [19]: 82.3%
- viability, T/C [20]: 76.5%
- viability, T/C [5]: 90.7%
- viability, T/C [6]: 105%
- viability, T/C [21]: 80.5%
- viability, T/C [22]: 98.5%
- viability, T/C [23]: 80.8%
- viability, T/C [24]: 62.2%
- viability, T/C [7]: 85.9%
- viability, T/C [8]: 84.1%
- viability, T/C [25]: 83.5%
- viability, T/C [26]: 85.8%
- viability, T/C [27]: 82.1%
- viability, T/C [28]: 56.4%
- viability, T/C [9]: 95.6%
- viability, T/C [10]: 84.6%
- viability, T/C [29]: 75.8%
- viability, T/C [30]: 95.2%
- viability, T/C [31]: 94%
- viability, T/C [32]: 57.1%
- viability, T/C [11]: 88%
- viability, T/C [12]: 76.4%
- viability, T/C [33]: 79.9%
- viability, T/C [34]: 79.9%
- viability, T/C [35]: 73.3%
- viability, T/C [36]: 57.1%
